System: cardiac gene expression
Test: Microarray analysis of cardiac gene expression (GeneChip Mouse Genome 430 2.0)
Assay type: in vivo, mice
Protocol: Microarray Sample Preparation and Analysis. Animal hearts were rapidly removed, and the atria and right ventricles were cut and immediately plunged into TRIzol Reagent (Life Technologies). Total RNA was isolated following the manufacturer's instructions, purified by phenol-chloroform extraction and then ethanol precipitation, and 20 μg further processed for microarray analysis. Briefly, cDNA synthesis, in vitro transcription, and labeling and fragmentation to produce the oligonucleotide probes were performed as instructed by the GeneChip manufacturer (Affymetrix). The probes were first hybridized to a test array (Affymetrix) and then to the GeneChip Mouse Genome 430 2.0 Array, using the GeneChip Hybridization Oven 640. The chips were washed in a GeneChip Fluidics Station 450 (Affymetrix), and the results were visualized with a GeneChip G7 scanner (Affymetrix). RMA normalization, pairwise comparisons, Student's t test and Benjamini and Hochberg correction were subsequently performed using GeneSifter (VizX Labs, Seattle, Wash.) and Spotfire DecisionSite 8.3 (Spotfire, Inc., Somerville, Mass.).
Effects on Gene Expression Profile. […] One mouse heart was used for each array, and was performed in triplicate, generating a total of 12 arrays. GeneSifter was used to perform RMA normalization, pairwise comparisons of averaged signal intensity values, and Student's t-test with Benjamini and Hochberg correction, and Spotfire was used to perform pairwise comparisons. […] Additionally, genes that were altered between any two N or cardiac hypertrophy samples were removed, as these alterations most likely represented normal variations between mice.

## C[C@H]1c2cccc(O)c2C(=O)C2=C(O)[C@]3(O)C(=O)C(C(N)=O)=C(O)[C@@H](N(C)C)[C@@H]3[C@@H](O)[C@@H]21 [doxycycline]
GenBank BC005738, heart, drug + isoproterenol vs isoproterenol-only mice, CH vs normal FC 2.1
  FC Tubulointerstitial nephritis antigen-like (Tinagl): −1.8 fold
GenBank BC008117, heart, drug + isoproterenol vs isoproterenol-only mice, CH vs normal FC −2.7
  FC Tubulin alpha (Tuba2): 4.1 fold
GenBank BC008626, vs mice given only isoproterenol
  FC Intercellular adhesion molecule (Icam1): −2.7
GenBank BC011158, vs mice given only isoproterenol
  FC Similar to serine protease inhibitor-2 related sequee 1 (Serpina3m): −2.4
GenBank BC011470, vs mice given only isoproterenol
  FC Phosphatidylinositol binding clathrin assembly protein (Picalm): −1.5
GenBank BC016576, vs mice given only isoproterenol
  FC Isochorismatase domain containing 1 (Isoc1): 2.8
GenBank BC017134, vs mice given only isoproterenol
  FC EGF, latrophilin seven transmembrane domain containing 1 (Eltd1): −2.0
GenBank BC018275, vs mice given only isoproterenol
  FC Ras homolog gene family, member B (RhoB): −2.1
GenBank BC018323, vs mice given only isoproterenol
  FC D site albumin promoter binding protein (Dbp): 10.2
GenBank BC019123, vs mice given only isoproterenol
  FC RAD52 homolog (S. cerevisiae) (Rad52): −1.8
GenBank BC019794, vs mice given only isoproterenol
  FC Leucine-rich repeat-containing 3b (Lrrc3b): 1.9
GenBank BC024519, vs mice given only isoproterenol
  FC Solute carrier family 45, member 3 (Slc45a3): −1.8
GenBank BC025502, vs mice given only isoproterenol
  FC Rho GTPase activating protein 24 (Arhgap24): −1.8
GenBank BC026425, vs mice given only isoproterenol
  FC Motile sperm domain containing 2 (Mospd): −1.7
GenBank BC027262, vs mice given only isoproterenol
  FC Similar to metallothionein 1 (Mt1): −2.7
GenBank BE136057, vs mice given only isoproterenol
  FC Guanine deaminase (Gda): −1.7
GenBank BE553782, vs mice given only isoproterenol
  FC EST: −1.6
GenBank BE630303, vs mice given only isoproterenol
  FC EST: −1.8
GenBank BE630363, vs mice given only isoproterenol
  FC ESTs: −3.1
GenBank BE685667, vs mice given only isoproterenol
  FC ESTs: −3.2
GenBank BE687858, vs mice given only isoproterenol
  FC EST: −1.5
GenBank BE852759, vs mice given only isoproterenol
  FC EST: 1.7
GenBank BF011461, vs mice given only isoproterenol
  FC Retinoblastoma binding protein 4 (Rbbp4): 2.1
GenBank BF121558, vs mice given only isoproterenol
  FC Methyl-CpG binding domain protein 1 (Mbd1): −1.8
GenBank BF134272, vs mice given only isoproterenol
  FC SET translocation (Set): 2.0
GenBank BF179910, vs mice given only isoproterenol
  FC Protein tyrosine phosphatase 4a1 (Ptp4a1): −1.9
GenBank BF467278, vs mice given only isoproterenol
  FC Potassium channel, subfamily K, member 3 (Kcnk3): 3.9
GenBank BF578669, vs mice given only isoproterenol
  FC Smoothelin (Smtn): 1.5
GenBank BF780807, vs mice given only isoproterenol
  FC EST: −1.9
GenBank BG067678, vs mice given only isoproterenol
  FC ESTs: 2.6
GenBank BG068705, vs mice given only isoproterenol
  FC EST: −1.7
GenBank BG069700, vs mice given only isoproterenol
  FC SET domain containing (lysine methyltransferase) 8)Setd8): 1.9
GenBank BG070037, vs mice given only isoproterenol
  FC Neuronal PAS domain protein 2 (Npas2): −2.6
GenBank BG073502, vs mice given only isoproterenol
  FC Pleckstrin homology domain containing, family G (with RhoGef domain) member 1 (Plekhg1): −2.0
GenBank BG074706, vs mice given only isoproterenol
  FC Microtubule-actin crosslinking factor 1 (Macf1): 2.7
GenBank BG075165, vs mice given only isoproterenol
  FC Insulin-like growth factor 1 (Igf1): 2.3
GenBank BG076140, 1st listing, vs mice given only isoproterenol
  FC p53 regulated PA26 nuclear protein (Sestrin 1) (Sesn1): −2.9
GenBank BG076140, 2nd listing, vs mice given only isoproterenol
  FC p53 regulated PA26 nuclear protein (Sestrin 1) (Sesn1): −3.5
GenBank BG092512, vs mice given only isoproterenol
  FC EST: −2.9
GenBank BG793483, heart, drug + isoproterenol vs isoproterenol-only mice, CH vs normal FC 2.4
  FC Transforming growth factor, beta receptor II (Tgfbr2): −2.3 fold
GenBank BG916957, vs mice given only isoproterenol
  FC Restin-like 2 (Rsnl2): 1.9
GenBank BI076714, vs mice given only isoproterenol
  FC mVL30-1 retroelement: −2.1
GenBank BI155184, vs mice given only isoproterenol
  FC Methylcrotonoyl-Coenzyme A carboxylase 2 (beta) (Mccc2): 1.7
GenBank BI466416, heart, drug + isoproterenol vs isoproterenol-only mice, CH vs normal FC 2.6
  FC Transforming, acidic coiled-coil containing protein 2 (Tacc2): −2.5 fold
GenBank BI663145, vs mice given only isoproterenol
  FC PHD finger protein 15 (Phf15): −2.1
GenBank BI788452, heart, drug + isoproterenol vs isoproterenol-only mice, CH vs normal FC 3.2
  FC Tissue inhibitor of metalloproteinase 4 (Timp4): −3.1 fold
GenBank BM115255, heart, drug + isoproterenol vs isoproterenol-only mice, CH vs normal FC 7.5
  FC Zi finger and BTB domain containing 16 (Zbtb16): −1.6 fold
GenBank BM119226, vs mice given only isoproterenol
  FC GTL2, imprinted maternally expressed untranslated mRNA (Gtl2): 1.7
GenBank BM120053, 1st listing, vs mice given only isoproterenol
  FC Ectodermal-neural cortex 1 (E1): −2.0
GenBank BM120053, 2nd listing, vs mice given only isoproterenol
  FC Ectodermal-neural cortex 1 (E1): −1.9
GenBank BM121149, vs mice given only isoproterenol
  FC Pellino 2(peli2): −1.9
GenBank BM194994, vs mice given only isoproterenol
  FC REST corepressor 1 (Rcor1): 3.3
GenBank BM219553, vs mice given only isoproterenol
  FC EST: −2.6
GenBank BM228590, 1st listing, vs mice given only isoproterenol
  FC Phospholipase D1 (Pld1): −2.0
GenBank BM228590, 2nd listing, vs mice given only isoproterenol
  FC Phospholipase D1 (Pld1): −1.6
GenBank BM229104, vs mice given only isoproterenol
  FC SET translocation (Set): 2.0
GenBank BM237933, vs mice given only isoproterenol
  FC p53 regulated PA26 nuclear protein (Sestrin 1) (Sesn1): −2.4
GenBank BM241485, vs mice given only isoproterenol
  FC Macrophage activation 2 (Mpa21): −3.6
GenBank BM243379, vs mice given only isoproterenol
  FC Prohibitin (Phb): −2.1
GenBank BM244064, vs mice given only isoproterenol
  FC Serine iorporator 3 (Seri3): −1.8
